Experiments:
Type in all cases: in vivo
[1] = test system: Surinam grass (Brachiaria decumbens); experiment: Test B postemergence
Method in brief: (§1)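 Post-treatment, species sat 13–15 days under greenhouse conditions before visual scoring against controls, 0 (no effect) through 100 (complete control). Application preemergence to sown seeds or postemergence at 1- to 4-leaf stage, using a non-phytotoxic solvent/surfactant formulation.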

[2] = test system: barnyardgrass (Echinochloa crus-galli); experiment: Test B postemergence
Method in brief: as §1

corn (Zea mays) [3] = experiment: Test B postemergence
Method in brief: as §1

[4] = test system: lambsquarters (Chenopodium album); experiment: Test B postemergence
Method in brief: as §1

[5] = test system: morning glory (Ipomoea hederacea); experiment: Test B postemergence
Method in brief: as §1

[6] = test system: velvetleaf (Abutilon theophrasti); experiment: Test B postemergence
Method in brief: as §1

Nightshade = experiment: Test C preemergence
[7] = test system: Surinam grass (Brachiaria decumbens); experiment: Test C preemergence
Method in brief: (§2)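 Herbicidal effect is a visual 0–100 score (100 = complete control) assigned versus untreated plants, 12 to 14 days after spraying in the greenhouse. Test compounds were applied in a non-phytotoxic, surfactant-containing solvent.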

[8] = test system: cocklebur (Xanthium strumarium); experiment: Test C preemergence
Method in brief: as §2

[9] = test system: common ragweed (Ambrosia elatior); experiment: Test C preemergence
Method in brief: as §2

corn (Zea mays) [10] = experiment: Test C preemergence
Method in brief: as §2

[11] = test system: crabgrass (Digitaria sanguinalis); experiment: Test C preemergence
Method in brief: as §2

[12] = test system: goosegrass (Eleusine indica); experiment: Test C preemergence
Method in brief: as §2

[13] = test system: johnsongrass (Sorghum halepense); experiment: Test C preemergence
Method in brief: as §2

kochia (Kochia scoparia) = experiment: Test C preemergence
Method in brief: as §2

[14] = test system: lambsquarters (Chenopodium album); experiment: Test C preemergence
Method in brief: as §2

[15] = test system: morningglory (Ipomoea hederacea); experiment: Test C preemergence
Method in brief: as §2

soybean (Glycine max) = experiment: Test C preemergence
Method in brief: as §2

[16] = test system: velvetleaf (Abutilon theophrasti); experiment: Test C preemergence
Method in brief: as §2

[17] = test system: woolly cupgrass (Eriochloa villosa); experiment: Test C preemergence
Method in brief: as §2

[18] = Rate 125 g/ha, scale 0 to 100, 0 no effect, 100 complete control
[19] = Rate 500 g/ha, scale 0 (no effect) to 100 (complete control), 13 to 15 days
[20] = preemergence, Rate 31 g/ha, scale 0 to 100
[21] = preemergence, Rate 62 g/ha, scale 0 to 100
[22] = preemergence, Rate 250 g/ha, scale 0 to 100, 0 no effect, 100 complete control

`Cc1cc(C)nc(N2CCC(n3ccc(C(C)(C)C)n3)C2=O)c1` (stereo not shown) [Compound 138] was tested, and the “Plant response rating, Surinam grass” value [1, 18] was 0, the “Plant response rating, Surinam grass” value [1, 19] was 0 and the “Plant response rating, Barnyardgrass” value [2, 18] was 0. For the same molecule, the “Plant response rating, Barnyardgrass” value [2, 19] was 0, the “Plant response rating, Corn” value (corn (Zea mays) [3]; [18]) was 0 and the “Plant response rating, Corn” value (corn (Zea mays) [3]; [19]) was 0. For the same molecule, the “Plant response rating, Lambsquarters” value [4, 18] was 0, the “Plant response rating, Lambsquarters” value [4, 19] was 0 and the “Plant response rating, Morningglory” value [5, 18] was 10. For the same molecule, the “Plant response rating, Morningglory” value [5, 19] was 30, the “Plant response rating, Velvetleaf” value [6, 18] was 0 and the “Plant response rating, Velvetleaf” value [6, 19] was 0. The “Plant response rating, Nightshade” value (Nightshade; Rate 31 g/ha, scale 0 to 100) was 0, the “Plant response rating, Nightshade” value (Nightshade; Rate 62 g/ha, scale 0 to 100) was 0 and the “Plant response rating, Nightshade” value (Nightshade; [18]) was 50. For the same molecule, the “Plant response rating, Nightshade” value (Nightshade; Rate 250 g/ha, scale 0 to 100, 0 no effect, 100 complete control) was 90, the “Plant response rating, Surinam grass” value [7, 18] was 0 and the “Plant response rating, Surinam grass” value [7, 20] was 0. The “Plant response rating, Surinam grass” value [7, 21] was 0, the “Plant response rating, Surinam grass” value [7, 22] was 100 and the “Plant response rating, Cocklebur” value [8, 18] was 0. The “Plant response rating, Cocklebur” value [8, 20] was 0, the “Plant response rating, Cocklebur” value [8, 21] was 0 and the “Plant response rating, Cocklebur” value [8, 22] was 0. The “Plant response rating, Ragweed, Common” value [9, 18] was 0, the “Plant response rating, Ragweed, Common” value [9, 20] was 0 and the “Plant response rating, Ragweed, Common” value [9, 21] was 0. The “Plant response rating, Ragweed, Common” value [9, 22] was 30, the “Plant response rating, Corn” value (corn (Zea mays) [10]; [18]) was 0 and the “Plant response rating, Corn” value (corn (Zea mays) [10]; [20]) was 0. The “Plant response rating, Corn” value (corn (Zea mays) [10]; [21]) was 0, the “Plant response rating, Corn” value (corn (Zea mays) [10]; [22]) was 30 and the “Plant response rating, Crabgrass” value [11, 18] was 100. The “Plant response rating, Crabgrass” value [11, 20] was 20, the “Plant response rating, Crabgrass” value [11, 21] was 70 and the “Plant response rating, Crabgrass” value [11, 22] was 100. The “Plant response rating, Goosegrass” value [12, 18] was 90, the “Plant response rating, Goosegrass” value [12, 20] was 20 and the “Plant response rating, Goosegrass” value [12, 21] was 80. The “Plant response rating, Goosegrass” value [12, 22] was 100, the “Plant response rating, Johnsongrass” value [13, 18] was 30 and the “Plant response rating, Johnsongrass” value [13, 20] was 0. For the same molecule, the “Plant response rating, Johnsongrass” value [13, 21] was 0, the “Plant response rating, Johnsongrass” value [13, 22] was 40 and the “Plant response rating, Kochia” value (kochia (Kochia scoparia); [18]) was 100. For the same molecule, the “Plant response rating, Kochia” value (kochia (Kochia scoparia); [20]) was 60, the “Plant response rating, Kochia” value (kochia (Kochia scoparia); [21]) was 90 and the “Plant response rating, Kochia” value (kochia (Kochia scoparia); [22]) was 100. The “Plant response rating, Lambsquarters” value [14, 18] was 100, the “Plant response rating, Lambsquarters” value [14, 20] was 100 and the “Plant response rating, Lambsquarters” value [14, 21] was 100. The “Plant response rating, Lambsquarters” value [14, 22] was 100, the “Plant response rating, Morningglory” value [15, 18] was 80 and the “Plant response rating, Morningglory” value [15, 20] was 30. For the same molecule, the “Plant response rating, Morningglory” value [15, 21] was 30, the “Plant response rating, Morningglory” value [15, 22] was 80 and the “Plant response rating, Soybean” value (soybean (Glycine max); [18]) was 60. For the same molecule, the “Plant response rating, Soybean” value (soybean (Glycine max); [21]) was 30, the “Plant response rating, Soybean” value (soybean (Glycine max); [22]) was 100 and the “Plant response rating, Velvetleaf” value [16, 18] was 0. The “Plant response rating, Velvetleaf” value [16, 20] was 0, the “Plant response rating, Velvetleaf” value [16, 21] was 0 and the “Plant response rating, Velvetleaf” value [16, 22] was 0. The “Plant response rating, Cupgrass, Woolly” value [17, 18] was 60, the “Plant response rating, Cupgrass, Woolly” value [17, 20] was 0 and the “Plant response rating, Cupgrass, Woolly” value [17, 21] was 40. The “Plant response rating, Cupgrass, Woolly” value [17, 22] was 100.

From US7138361B2, “Herbicidal heterocycles” (E. I. du Pont de Nemours and Company, priority 2000, dated 2006)
